Results as given in EP2408450B1, “ALPHA-(N-SULFONAMIDO)ACETAMIDE COMPOUND AS AN INHIBITOR OF BETA AMYLOID PEPTIDE PRODUCTION” (Bristol-Myers Squibb Company, priority 2009, dated 2010).
Marks after values point to notes of the source that are not given here.

Columns and labels:
[1] = target: presenilin target site of the γ-secretase complex; experiment: Presenilin binding assay (radioligand displacement, THP-1 membranes); settings: mean ± SD, n = 8
Method: Radioligand displacement assays with [^3H] (R)-4-((N-(1-amino-4-methyl-1-oxopentan-2-yl)-4-chlorophenylsulfonamido)methyl)-N-(2-methoxyethyl)benzamide were carried out using a method previously described for [^3H] (2R,3S)-2-isobutyl-N1-((S)-2-oxo-1-(3-phenoxybenzyl)azepan-3-yl)-3-propylsuccinamide (RE987, compound A [Seiffert, D. et al., "Presenilin-1 and -2 are molecular targets for γ-secretase inhibitors", J. Biol. Chem., 275(44):34086-34091 (2000)]). Several experiments were performed to confirm that [^3H] (R)-4-((N-(1-amino-4-methyl-1-oxopentan-2-yl)-4-chlorophenylsulfonamido)methyl)-N-(2-methoxyethyl)benzamide bound to γ-secretase. First, the specific binding of [^3H] […] (R)-4-((N-(1-amino-4-methyl-1-oxopentan-2-yl)-4-chlorophenylsulfonamido)methyl)-N-(2-methoxyethyl)benzamide binding to THP-1 membranes correlated well with γ-secretase potency both as measured using previous radioligand binding assays and inhibition of Aβ formation in cultured cells.
THP-1 cells were grown in Spinner cultures in RPMI 1640 containing L-glutamine (Life Technologies Inc.) and 10 µM β-mercaptoethanol to a cell density of 5 x 10^5/mL. […] Filters were washed three times with 0.3 mL per well of phosphate buffered saline pH 7.0 at 4°C and radioactivity was measured using a Wallac 1450 Microbeta liquid scintillation counter (PerkinElmer, Boston, MA). […]

[2] = Metabolic stability in liver microsomes (rat); format: in vitro ADME
Method: (§1) Mouse, rat, dog, human, and cynomolgus monkey liver microsomes were obtained from BD Gentest (Woburn, MA). The lot numbers were 13 (mouse), 8 (rat), 8 (dog), 19 and 26 (human), and 3 (cynomolgus monkey). […] The reaction, conducted in triplicate, was initiated by the addition of NADPH followed by incubation at 37°C for 50 minutes. Aliquots of samples (0.25 mL) were taken at 0, 5, 10, 20, 30, 40 and 50 minutes and the reaction was quenched by the addition of 3 volumes of acetonitrile. […] The reaction, conducted in triplicate, was initiated by the addition of NADPH followed by incubation at 37 °C for 50 minutes. Aliquots of samples (0.25 mL) were taken at 0, 5, 10, 20, 30, 40 and 50 minutes and the reaction was quenched by the addition of 3 volumes of acetonitrile. […] The reaction, conducted in duplicate, was initiated by the addition of NADPH followed by incubation at 37°C for 40 minutes. Aliquots of samples (0.25 mL) were taken at 0, 5, 10, 15, 20, 30 and 40 minutes and the reaction was quenched by the addition of 3 volumes of acetonitrile. For all studies, samples were analyzed immediately by an LC/MS method.

Aβ42 = experiment: Inhibition of Aβ42 formation in cultured H4 APP751 SWE cells; format: cell-based; settings: H4-8Sw cells, mean ± SD, n = 45
Method: Cells were maintained in log phase through twice weekly passage at a 1:20 dilution. […] Following incubation for 19 hours in 5% CO2 at 37°C, plates were briefly centrifuged (1000 rpm, 5 min). […] Antibody cocktails were freshly prepared by dilution into 40 mM Tris-HCl (pH 7.4) with 0.2% BSA and added to assay plates. […] Assay plates containing antibodies were sealed with aluminum foil and incubated overnight at 4°C. Signal was determined using a Viewlux counter (Perkin Elmer) and IC50 values determined using curve fitting in CurveMaster (Excel Fit based).

[3] = Metabolic stability in liver microsomes (dog); format: in vitro ADME
Method: as §1

proximal duodenum = experiment: Histopathology of the proximal duodenum (GI toxicity) in rats; format: in vivo, rat; settings: for Day 4 GI Tox: 4 days; for Day 7 GI Tox: 7 days; for GI Tox: 4-day
Method: Female Harlan Sprague-Dawley rats (∼200 - 250 g) were dosed daily by oral gavage with a dosing vehicle of 99% PEG-400, 1% Tween-80 at 4 mL/kg in the morning. […] All procedures were done in concordance with ACUC guidelines. […] Plasma was obtained after centrifugation. […] CSF samples were centrifuged to remove cells or debris prior to dilution at 1:2 in 4% BSA and frozen for subsequent analysis.
Following euthanasia by CO2 asphyxiation, approximately 3 cm long sections of the proximal duodenum were removed from the abdomen, rinsed with ice cold Phosphate buffered saline and placed into 10% buffered formalin prior to sectioning. Tissue sections of the duodenum were embedded in liquid paraffin, mounted onto blocks, and cut into triplicate sagittal (cross-luminal) ring sections and stained using the Periodic acid Schiff's base method prior to microscopic evaluation. All animals survived until scheduled necropsy was performed.

SMILES: NC(=O)[C@@H](CCC(F)(F)F)N(Cc1ccc(-c2ncon2)cc1F)S(=O)(=O)c1ccc(Cl)cc1 [(2R)-2-[[(4-chlorophenyl)sulfonyl][[2-fluoro-4-(1,2,4-oxadiazol-3-yl)phenyl]methyl]amino]-5,5,5-trifluoropentanamide]
- Ki [1]: 0.48 nM
- rate of in vitro metabolism ([2]; rat microsomes, NADPH-fortified, 1 µM): 630 pmol/min/mg protein
- predicted in vivo (serum) clearance ([2]; rat, scaled from liver microsome rate): ~52 mL/min/kg
- IC50 (Aβ42): 0.27 ± 0.12 nM
- rate of in vitro metabolism ([3]; dog microsomes, NADPH-fortified, 1 µM): 40 pmol/min/mg protein
- predicted in vivo (serum) clearance ([3]; dog, scaled from liver microsome rate): ~14 mL/min/kg
- rats with mild lesions in duodenal tissue (histological evaluation) (proximal duodenum; 100 mg/kg/day, 4-day rat study): 1/3
- Day 4 GI Tox (proximal duodenum; Rat Study No. 3, 30 mg/kg/day): NAD
- Day 7 GI Tox (proximal duodenum; Rat Study No. 3, 30 mg/kg/day): NAD
- Day 4 GI Tox (proximal duodenum; Rat Study No. 3, 300 mg/kg/day): +^b
- Day 7 GI Tox (proximal duodenum; Rat Study No. 3, 300 mg/kg/day): NAD
- dose needed to induce GI toxicity (proximal duodenum; female, Harlan Sprague-Dawley, rat, in vivo): 100 mg/kg/day
- GI Tox (proximal duodenum; rat, Study No. 2, 3 mg/kg/day): NAD
- GI Tox (proximal duodenum; rat, Study No. 2, 10 mg/kg/day): NAD
- GI Tox (proximal duodenum; rat, Study No. 2, 30 mg/kg/day): NAD
- GI Tox (proximal duodenum; rat, Study No. 2, 100 mg/kg/day): +^e
- GI Tox (proximal duodenum; rat, Study No.1, 3 mg/kg/day): NAD
- GI Tox (proximal duodenum; rat, Study No.1, 10 mg/kg/day): NAD
- GI Tox (proximal duodenum; rat, Study No.1, 30 mg/kg/day): NAD
- drug-related duodenal changes (proximal duodenum; rats given ≤ 30 mg/kg): No drug-related duodenal changes
- microscopic evaluation of the proximal duodenum (proximal duodenum; rats, 100 mg/kg/day once daily for 4 days, 1 of 3 animals): slight goblet cell metaplasia
